# In patent US6916797B2, “α-arylethylpiperazine derivatives as neurokinin antagonists” (UCB, S.A., priority 2000, dated 2005):
# Experiments:
# [1] = tested on: verapamil binding site of the L-type calcium channel; test: Inhibition of [3H]D888 binding to the verapamil binding site of the L-type calcium channel (rat cerebral cortex membranes); details: 10 μmol/l of test substance
# Description: 200-250 g male Sprague-Dawley rats are sacrificed by decapitation. Cerebral cortices are quickly dissected on ice and homogenized in a 20 mmol/l Tris-HCl (pH 7.4) buffer containing 250 mmol/l sucrose (buffer A). The homogenate is centrifuged at 30,000 g for 15 min at 4° C. The resulting crude membrane pellet is resuspended in a 50 mmol/l Tris-HCl (pH 7.4) buffer and incubated 15 min at 37° C. before being centrifuged at 30,000×g for 15 min at 4° C. After two more washes under the same conditions, the final pellet is resuspended in buffer A at a protein concentration ranging from 15 to 25 mg/ml and stored in liquid nitrogen.
# Binding experiments are essentially performed according to Reynolds J. et al., J. Pharmacol. Exp. Ther. (1986), 237, 731-738. (1986) with slight modifications.
# Membranes (120-175 μg/assay) are incubated at 25° C. for 60 min in 0.5 ml of a 50 mmol/l Tris-HCl buffer (pH 7.4) containing 2 mmol/l MgCl2, 0.2 to 0.4×10-9 mol/l of [^3H]D888 (85 Ci/mmol; Amersham, Belgium) and 10 μmol/l of the test substance. The non specific binding (NSB) is defined as the residual binding observed in the presence 10 μM verapamil. Membrane-bound and -free radioligands are separated by rapid filtration through glass fiber filters (equivalent to Whatman GF/C or GF/B; VEL, Belgium) presoaked in 0.1% polyethyleneimine to reduce non specific binding. Samples and filters are rinsed by at least 6 ml of 50 mmol/l Tris-HCl (pH 7.4) buffer. […] The radioactivity trapped onto the filters is counted by liquid scintillation in a β-counter.
# The inhibition of the radioligand specific binding is calculated as follows: [formula] • where BI and Bo represent the binding observed in the presence and absence of the test substance respectively; and • BNS is the non specific binding.
# Data analysis is performed by a computerized non linear curve fitting method using a set of equations describing several binding models assuming competitive interactions between ligands (Weiland G. A. and P. B. Molinoff Life Science (1981), 29, 313-330; Molinoff P. et al. (1981) Life Sci., 29, 427-443).
# [2] = tested on: isolated rat aorta contracted by 100 mM KCl; test: Effect of compound on isolated rat aorta contracted by 100 mM KCl; details: 10^−5 M; contraction by 100 mM KCl
# Description: Rat thoracic aorta depolarized by 100 mM KCl develops a contraction induced by an influx of Ca^2+ into the smooth muscle cell. An inhibition of this contraction could predict a Ca^2+ antagonist activity.
# The method was adapted from Polster P. et al., J. Pharmacol. Exp. Ther. (1990), 255, 593: rings of thoracic aorta were prepared from male Wistar rats (250-400 g) and mounted under an optimal resting tension of 2 g in 10 ml organ baths containing modified Krebs' solution (NaCl 112 mM, NaHCO3 25 mM, KCl 5 mM, MgSO4 1.2 mM, CaCl2 2.5 mM, KH2PO4 1 mM and glucose 11.5 mM, pH 7.4). The bathing solution was maintained at a temperature of 37° C. and gassed with 95% O2 and 5% CO2. Isometric contractions were measured with a force transducer connected to an amplifier. A computer system was used to control data acquisition and fluid circulation through electrovalves. Drugs were manually injected into the bath.
# Each ring was allowed to equilibrate for 60 min in the modified Krebs' solution. […] After obtaining two reproducible control contractions, a 3rd contraction was induced and the test compound was added to the bathing medium for 2 hours. Only preparation in which the contractions were matched were used. Each tissue received only one concentration of the test compound. Appropriate control experiments were conducted in order to test the effect of the solvant.
# To normalize data, the change in tension due to the drug was compared to the change of tension due to the solvant and expressed as percentage of the induced relaxation of the initial contraction. Raw data were processed by a computer system and the pD′2 value was calculated following the method of Van Rossum J. M. et al., Arch. Int. Pharmacodyn. Ther. (1963), 143, 299.
# [3] = target: NK1 receptors (Homo sapiens, UniProt P25103); test: Binding of [4,5-3H-Leu10] substance P to human recombinant NK1 receptors expressed in CHO cell membranes; design: host or cells: CHO cells; details: pIC50 = -log IC50, concentration inhibiting by 50% the specific binding of [4,5-3H] substance P; tested as the free base/salt given in c1
# Description: The following test was designed to assess the affinity of test substances for human recombinant NK1 receptors expressed in Chinese Hamster Ovarian (CHO) cells.
# CHO cells expressing the human recombinant NK1 receptor are used. The cells were obtained from Euroscreen (Brussels, Belgium).
# Cells expressing the human NK1 receptor are routinely cultured in 175 cm2 flasks containing 75 ml of medium F12 (Ham) enriched with 2 mmol/l L-glutamine, 100 IU/ml penicilline, 100 μg/ml streptomycine, 1% sodium pyruvate, 2.5 μg/ml fungizone amphotericin B, 400 μg/ml geneticin and supplemented with 10% foetal calf serum. […] When subcultured, the cells are seeded at a concentration of 50,000 cells/cm2.
# Confluent cells are gently scraped and resuspended in 25 ml of phosphate buffered saline without calcium and magnesium. The cellular suspension is centrifuged at 1500×g for 3 min (4° C.). The cell pellet is homogenized in a 15 mmol/l Tris-HCl (pH 7.5) buffer, 2 mmol/l MgCl2, 0.3 mmol/l EDTA, 1 mmol/l EGTA. The crude membrane fraction is collected by two consecutive centrifugation steps at 40,000×g for 25 min (4° C.). The final pellet is resuspended in 20 mmol/l Tris-HCl (pH 7.4), 250 mmol/l sucrose buffer at a protein concentration ranging from 2 to 6 mg/ml and stored in liquid nitrogen. • 1.2.2. Test Design
# The inhibition constant (Ki) is determined using increasing concentrations of the test substance. The concentration range usually encompasses 6 log units with variable steps (0.3 to 1 log). Assays are performed in mono- or duplicate.
# Membranes are incubated at 25° C. for 60 min in 0.5 ml of a 50 mmol/l Tris-HCl buffer (pH 7.4) containing 2 mmol/l MgCl2, 100 μg/ml bacitracine, 0.1 to 0.4×10^−9 mol/l of [4,5^3H-Leu^10] substance P (specific activity>100 Ci/mmol) and increasing concentrations of the test substance. […] Membrane-bound and free radioligands are separated by rapid filtration through glass fiber filters (equivalent to Whatman GF/C or GF/B; VEL, Belgium) presoaked in 0.1% polyethyleneimine to reduce non specific binding. Samples and filters are rinsed by at least 6 ml of 50 mmol/l Tris-HCl (pH 7.4) buffer.
# Initial values for the different variables may be provided by the experimenter.
# Sequence of NK1 receptors (P25103 whole entry): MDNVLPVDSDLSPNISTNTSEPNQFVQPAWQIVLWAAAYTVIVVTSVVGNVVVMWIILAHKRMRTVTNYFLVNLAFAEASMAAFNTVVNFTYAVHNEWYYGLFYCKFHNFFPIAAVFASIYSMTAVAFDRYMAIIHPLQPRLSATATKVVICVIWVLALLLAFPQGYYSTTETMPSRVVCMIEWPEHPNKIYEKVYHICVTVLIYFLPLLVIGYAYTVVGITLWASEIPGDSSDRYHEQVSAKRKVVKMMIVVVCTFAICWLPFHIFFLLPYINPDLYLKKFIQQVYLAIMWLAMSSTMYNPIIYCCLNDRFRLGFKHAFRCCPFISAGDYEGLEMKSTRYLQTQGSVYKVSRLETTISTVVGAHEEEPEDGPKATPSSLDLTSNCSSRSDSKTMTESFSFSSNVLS
structure (smiles),measurement,setting,value
"O=C(O)CCCCN1CCN(C(COCc2cc(C(F)(F)F)cc(C(F)(F)F)c2)c2ccccc2)CC1 (racemic) [Compound 233, 5-{4-[2-(3,5-Bis-trifluoromethyl-benzyloxy)-1-phenyl-ethyl]-piperazin-1-yl}-pentanoic acid]",% inhibition of [3H]D888 binding to the verapamil binding site of the L-type calcium channel,[1],0 (0: inhibition < 20%)
same,Result: effect of compound on isolated rat aorta contracted by 100 mM KCl,[2],inactive à 10^−5 M
same,IC50,[3],31.6 nM
"CC(C)COC(=O)COCCN1CCN(C(COCc2cc(C(F)(F)F)cc(C(F)(F)F)c2)c2ccccc2)CC1 (stereo not shown) [Compound 287, (2-{4-[2-(3,5-Bis-trifluoromethyl-benzyloxy)-1-phenyl-ethyl]-piperazin-1-yl}-ethoxy)-acetic acid isobutyl ester]",% inhibition of [3H]D888 binding to the verapamil binding site of the L-type calcium channel,[1],+ (+: inhibition comprised between 20 and 50%)
same,Result: effect of compound on isolated rat aorta contracted by 100 mM KCl,[2],inactive à 10^−5 M
same,IC50,[3],31.6 nM
FC(F)(F)c1cc(COCC(c2ccccc2)N2CCN(CCOCc3nnn[nH]3)CC2)cc(C(F)(F)F)c1 (stereo not shown) [Compound 300],% inhibition of [3H]D888 binding to the verapamil binding site of the L-type calcium channel,[1],+ (+: inhibition comprised between 20 and 50%)
same,Result: effect of compound on isolated rat aorta contracted by 100 mM KCl,[2],inactive à 10^−5 M
same,IC50,[3],31.6 nM
C[C@@H](OC[C@@H](c1ccccc1)N1CCN(CCOCC(=O)O)CC1)c1cc(C(F)(F)F)cc(C(F)(F)F)c1 [Compound 281],% inhibition of [3H]D888 binding to the verapamil binding site of the L-type calcium channel,[1],+ (+: inhibition comprised between 20 and 50%)
same,Result: effect of compound on isolated rat aorta contracted by 100 mM KCl,[2],inactive à 10^−5 M
FC(F)(F)c1cc(COC[C@@H](c2ccccc2)N2CCN(CCCCc3nnn[nH]3)CC2)cc(C(F)(F)F)c1 [Compound 299],% inhibition of [3H]D888 binding to the verapamil binding site of the L-type calcium channel,[1],+ (+: inhibition comprised between 20 and 50%)
same,Result: effect of compound on isolated rat aorta contracted by 100 mM KCl,[2],inactive à 10^−5 M
same,IC50,[3],15.8 nM
O=C(O)COCCN1CCN([C@@H](COCc2cc(C(F)(F)F)cc(C(F)(F)F)c2)c2ccccc2)CC1 [Compound 237],% inhibition of [3H]D888 binding to the verapamil binding site of the L-type calcium channel,[1],0 (0: inhibition < 20%)
same,Result: effect of compound on isolated rat aorta contracted by 100 mM KCl,[2],inactive à 10^−5 M
"O=C(O)COCCN1CCN(C(COCc2cc(C(F)(F)F)cc(C(F)(F)F)c2)c2ccccc2)CC1 (racemic) [Compound 235, (2-{4-[2-(3,5-Bis-trifluoromethyl-benzyloxy)-1-phenyl-ethyl]-piperazin-1-yl}-ethoxy)-acetic acid]",% inhibition of [3H]D888 binding to the verapamil binding site of the L-type calcium channel,[1],0 (0: inhibition < 20%)
same,Result: effect of compound on isolated rat aorta contracted by 100 mM KCl,[2],inactive à 10^−5 M
same,IC50,[3],63.1 nM
FC(F)(F)c1cc(COCC(c2ccccc2)N2CCN(CCCCc3nnn[nH]3)CC2)cc(C(F)(F)F)c1 (stereo not shown) [Compound 297],% inhibition of [3H]D888 binding to the verapamil binding site of the L-type calcium channel,[1],+ (+: inhibition comprised between 20 and 50%)
same,Result: effect of compound on isolated rat aorta contracted by 100 mM KCl,[2],inactive à 10^−5 M
same,IC50,[3],20 nM
O=S(=O)(O)CCCN1CCN(C(COCc2cc(C(F)(F)F)cc(C(F)(F)F)c2)c2ccccc2)CC1 (racemic) [Compound 160],% inhibition of [3H]D888 binding to the verapamil binding site of the L-type calcium channel,[1],0 (0: inhibition < 20%)
same,Result: effect of compound on isolated rat aorta contracted by 100 mM KCl,[2],inactive à 10^−5 M
same,IC50,[3],31.6 nM
O=C(O)c1ccc(CN2CCN([C@H](COCc3cc(C(F)(F)F)cc(C(F)(F)F)c3)c3ccccc3)CC2)cc1 [Compound 243],% inhibition of [3H]D888 binding to the verapamil binding site of the L-type calcium channel,[1],0 (0: inhibition < 20%)
same,Result: effect of compound on isolated rat aorta contracted by 100 mM KCl,[2],inactive à 10^−5 M
same,IC50,[3],63.1 nM
"O=c1[nH]nc(CN2CCN(C(COCc3cc(C(F)(F)F)cc(C(F)(F)F)c3)c3ccccc3)CC2)[nH]1 (stereo not shown) [Compound 295, 5-{4-[2-(3,5-Bis-trifluoromethyl-benzyloxy)-1-phenyl-ethyl]-piperazin-1-ylmethyl}-2,4-dihydro-[1,2,4]triazol-3-one]",% inhibition of [3H]D888 binding to the verapamil binding site of the L-type calcium channel,[1],− + (+: inhibition comprised between 20 and 50%)
same,Result: effect of compound on isolated rat aorta contracted by 100 mM KCl,[2],inactive à 10^−5 M
same,IC50,[3],63.1 nM
Fc1ccc(C(COCc2cc(C(F)(F)F)cc(C(F)(F)F)c2)N2CCN(CCCCc3nnn[nH]3)CC2)cc1 (stereo not shown) [Compound 301],% inhibition of [3H]D888 binding to the verapamil binding site of the L-type calcium channel,[1],+ (+: inhibition comprised between 20 and 50%)
same,Result: effect of compound on isolated rat aorta contracted by 100 mM KCl,[2],inactive à 10^−5 M
same,IC50,[3],15.8 nM
CC(OCC(c1ccccc1)N1CCN(CCCCc2nnn[nH]2)CC1)c1cc(C(F)(F)F)cc(C(F)(F)F)c1 (stereo not shown) [Compound 303],% inhibition of [3H]D888 binding to the verapamil binding site of the L-type calcium channel,[1],+ (+: inhibition comprised between 20 and 50%)
same,Result: effect of compound on isolated rat aorta contracted by 100 mM KCl,[2],inactive à 10^−5 M
same,IC50,[3],5.01 nM
"O=C(O)CN1CCN(C(COCc2cc(C(F)(F)F)cc(C(F)(F)F)c2)c2ccccc2)CC1 (racemic) [Compound 229, {4-[2-(3,5-Bis-trifluoromethyl-benzyloxy)-1-phenyl-ethyl]-piperazin-1-yl}-acetic acid]",% inhibition of [3H]D888 binding to the verapamil binding site of the L-type calcium channel,[1],0 (0: inhibition < 20%)
same,Result: effect of compound on isolated rat aorta contracted by 100 mM KCl,[2],inactive à 10^−5 M
same,IC50,[3],79.4 nM
